Read-outs that look alike come from different tables or passages of the source.
Tests used:
clinical = conditions: human, in vivo; for AUC(0-inf): AUCinf
Vero cells = experiment: Cell uptake and metabolism of EIDD-2801 in Vero cells; conditions: intracellular analyte; Vero cells incubated with 20 μM EIDD-2801, 1-24 hours
Huh-7 cells = experiment: Cell uptake and metabolism of EIDD-2801 in Huh-7 cells; conditions: intracellular analyte; Huh-7 cells incubated with 20 μM EIDD-2801, 1-24 hours
CEM cells = experiment: Cell uptake and metabolism of EIDD-2801 in CEM cells; conditions: intracellular analyte; CEM cells incubated with EIDD-2801 (40 μM solution prepared), 1-24 hours
SARS [1] = experiment: organism not typed; type: cell-based; conditions: Vero C1008
HCoV = experiment: organism not typed; type: cell-based; conditions: Vero C1008
SARS-CoV2 = experiment: microbe, parasite or virus in culture; type: cell-based; conditions: Severe acute respiratory syndrome coronavirus 2, Vero
HepG2 cells = experiment: Cell uptake and metabolism of EIDD-2801 in HepG2 cells; conditions: intracellular analyte; HepG2 cells incubated with 20 μM EIDD-2801, 1-24 hours
[2] = cynomolgus monkey, in vivo, po
SARS [3] = experiment: organism not typed; type: cell-based; conditions: Vero C1008, SARS; Vero E6
[4] = human, in vivo

Work on O=c1nc(NO)ccn1C1OC(CO)C(O)C1O (stereo not shown) [EIDD-1931, 1-(3,4-dihydroxy-5-(hydroxymethyl)tetrahydrofuran-2-yl)-4-(hydroxyamino)pyrimidin-2-one] yielded an AUC(0-inf) (clinical; 50 mg) of 461 ng·h/mL, an AUC(0-t) (clinical; 50 mg, AUClast) of 444 ng·h/mL and an AUC(0-t) (clinical; 50 mg, AUCt) of 461 ng·h/mL. For the same molecule, the Cmax (clinical; 50 mg) was 223 ng/mL, the half-life (clinical; 50 mg, t1/2) was 0.937 h and the Tmax (clinical; 50 mg, tmax) was 1 h. The AUC(0-inf) (clinical; 100 mg) was 855 ng·h/mL, the AUC(0-t) (clinical; 100 mg, AUClast) was 835 ng·h/mL and the AUC(0-t) (clinical; 100 mg, AUCt) was 854 ng·h/mL. The Cmax (clinical; 100 mg) was 395 ng/mL, the half-life (clinical; 100 mg, t1/2) was 0.918 h and the Tmax (clinical; 100 mg, tmax) was 1.25 h. For the same molecule, the AUC(0-inf) (clinical; 200 mg) was 1660 ng·h/mL, the AUC(0-t) (clinical; 200 mg, AUClast) was 1720 ng·h/mL and the AUC(0-t) (clinical; 200 mg, AUCt) was 1730 ng·h/mL. The Cmax (clinical; 200 mg) was 742 ng/mL, the half-life (clinical; 200 mg, t1/2) was 1.09 h and the Tmax (clinical; 200 mg, tmax) was 1.5 h. It also gave an AUC(0-inf) (clinical; 300 mg) of 3090 ng·h/mL, an AUC(0-t) (clinical; 300 mg, AUClast) of 2980 ng·h/mL and an AUC(0-t) (clinical; 300 mg, AUCt) of 2960 ng·h/mL. For the same molecule, the Cmax (clinical; 300 mg) was 1100 ng/mL, the half-life (clinical; 300 mg, t1/2) was 1.71 h and the Tmax (clinical; 300 mg, tmax) was 1.5 h. The AUC(0-inf) (clinical; 400 mg) was 3800 ng·h/mL, the AUC(0-t) (clinical; 400 mg, AUClast) was 3730 ng·h/mL and the AUC(0-t) (clinical; 400 mg, AUCt) was 3710 ng·h/mL. It also gave a Cmax (clinical; 400 mg) of 1470 ng/mL, a half-life (clinical; 400 mg, t1/2) of 1.2 h and a Tmax (clinical; 400 mg, tmax) of 1.5 h. It also gave an AUC(0-inf) (clinical; 600 mg) of 6680 ng·h/mL, an AUC(0-t) (clinical; 600 mg, AUClast) of 7250 ng·h/mL and an AUC(0-t) (clinical; 600 mg, AUCt) of 7110 ng·h/mL. For the same molecule, the Cmax (clinical; 600 mg) was 2240 ng/mL, the half-life (clinical; 600 mg, t1/2) was 1.16 h and the Tmax (clinical; 600 mg, tmax) was 1.75 h. It also gave an AUC(0-inf) (clinical; 800 mg) of 8200 ng·h/mL, an AUC(0-t) (clinical; 800 mg, AUClast) of 8450 ng·h/mL and an AUC(0-t) (clinical; 800 mg, AUCt) of 8330 ng·h/mL. For the same molecule, the Cmax (clinical; 800 mg) was 2970 ng/mL, the Tmax (clinical; 800 mg, tmax) was 1.5 h and the half-life (clinical; mean t1/2) was 0.918 to 1.18 h. For the same molecule, the Tmax (clinical; median tmax) was 1 to 1.75 h, the AUC(0-inf) (clinical; po, 50 mg) was 432 ng·h/mL and the AUC(0-t) (clinical; po, 50 mg, AUClast) was 415 ng·h/mL. For the same molecule, the Cmax (clinical; po, 50 mg) was 223 ng/mL, the half-life (clinical; po, 50 mg, t1/2) was 0.945 h and the Tmax (clinical; po, 50 mg, tmax (median)) was 1 h. For the same molecule, the AUC(0-inf) (clinical; po, 100 mg) was 932 ng·h/mL, the AUC(0-t) (clinical; po, 100 mg, AUClast) was 917 ng·h/mL and the Cmax (clinical; po, 100 mg) was 454 ng/mL. The half-life (clinical; po, 100 mg, t1/2) was 0.907 h, the Tmax (clinical; po, 100 mg, tmax (median)) was 1 h and the AUC(0-inf) (clinical; po, 200 mg) was 1830 ng·h/mL. It also gave an AUC(0-t) (clinical; po, 200 mg, AUClast) of 1810 ng·h/mL, a Cmax (clinical; po, 200 mg) of 926 ng/mL and a half-life (clinical; po, 200 mg, t1/2) of 1.02 h. For the same molecule, the Tmax (clinical; po, 200 mg, tmax (median)) was 1 h, the AUC(0-inf) (clinical; po, 400 mg) was 4010 ng·h/mL and the AUC(0-t) (clinical; po, 400 mg, AUClast) was 4000 ng·h/mL. For the same molecule, the Cmax (clinical; po, 400 mg) was 1850 ng/mL, the half-life (clinical; po, 400 mg, t1/2) was 1.03 h and the Tmax (clinical; po, 400 mg, tmax (median)) was 1 h. It also gave an AUC(0-inf) (clinical; po, 600 mg) of 6130 ng·h/mL, an AUC(0-t) (clinical; po, 600 mg, AUClast) of 6120 ng·h/mL and a Cmax (clinical; po, 600 mg) of 2720 ng/mL. It also gave a half-life (clinical; po, 600 mg, t1/2) of 1.06 h, a Tmax (clinical; po, 600 mg, tmax (median)) of 1 h and an AUC(0-inf) (clinical; po, 800 mg) of 8740 ng·h/mL. The AUC(0-t) (clinical; po, 800 mg, AUClast) was 8720 ng·h/mL, the Cmax (clinical; po, 800 mg) was 3640 ng/mL and the half-life (clinical; po, 800 mg, t1/2) was 1.29 h. The Tmax (clinical; po, 800 mg, tmax (median)) was 1 h, the AUC(0-inf) (clinical; po, 1200 mg) was 13800 ng·h/mL and the AUC(0-t) (clinical; po, 1200 mg, AUClast) was 13800 ng·h/mL. The Cmax (clinical; po, 1200 mg) was 4500 ng/mL, the half-life (clinical; po, 1200 mg, t1/2) was 1.81 h and the Tmax (clinical; po, 1200 mg, tmax (median)) was 1.75 h. It also gave an AUC(0-inf) (clinical; po, 1600 mg) of 20700 ng·h/mL, an AUC(0-t) (clinical; po, 1600 mg, AUClast) of 20700 ng·h/mL and a Cmax (clinical; po, 1600 mg) of 6350 ng/mL. The half-life (clinical; po, 1600 mg, t1/2) was 4.59 h, the Tmax (clinical; po, 1600 mg, tmax (median)) was 1.5 h and the half-life (clinical; po, geometric mean terminal elimination half-lives (t1/2)) was 0.91 to 1.29 h. The Tmax (clinical; po, median tmax) was 1 h, the “AUC0−>t” value (Vero cells) was 228.6 pmol · h/M cells and the Cmax (Vero cells) was 13.5 pmol/M Cells. For the same molecule, the “AUC0−>t” value (Huh-7 cells) was 449.2 pmol · h/M cells, the Cmax (Huh-7 cells) was 29.0 pmol/M Cells and the “AUC0−>t” value (CEM cells) was 5.8 pmol · h/M cells. It also gave a Cmax (CEM cells) of 0.3 pmol/M Cells, an EC90 (SARS [1]) of under 800 nM and an EC50 (HCoV) of under 400 nM. The EC50 (SARS-CoV2) was 300 nM, the “AUC0−>t” value (HepG2 cells) was 249.8 pmol · h/M cells and the Cmax (HepG2 cells) was 13.4 pmol/M Cells. The “bioavailability” value [2] was “low bioavailability”, the EC50 (SARS [3]) was under 800 nM and the “Slope (90% Confidence Interval) of power model, AUCinf” value [4] was 1.07 (1.02, 1.13). The “Slope (90% Confidence Interval) of power model, AUClast” value [4] was 1.09 (1.03, 1.15), the “Slope (90% Confidence Interval) of power model, Cmax” value [4] was 1.01 (0.927, 1.08) and the “Slope of power model, AUCinf” value [4] was 1.10. The “Slope of power model, AUClast” value [4] was 1.11, the “Slope of power model, AUCt” value [4] was 1.08 and the “delay of median tmax, capsule vs solution formulation” value [4] was “up to 0.75 hours”. For the same molecule, the “dose excreted in urine as EIDD-1931” value [4] was 0.854-3.61%, the “geometric mean accumulation ratio based on AUCt” value [4] was 0.938-1.16 and the “geometric mean accumulation ratio based on Cmax” value [4] was 0.843-1.10. The “geometric mean ratio of AUCinf, capsule (multiple-dose cohorts Day 1) vs solution (single-dose cohorts)” value [4] was 0.91-1.09, the “geometric mean ratio of Cmax, capsule vs solution formulation” value [4] was 0.76-1.00 and the “RAcmax (accumulation ratio)” value ([4]; 50 mg) was 0.843. For the same molecule, the “RAcmax (accumulation ratio)” value ([4]; 100 mg) was 1.10, the “FEAUC/inf (ratio of AUCinf fed:fasted)” value ([4]; 200 mg) was 0.955 and the “FECmax (ratio of Cmax fed:fasted)” value ([4]; 200 mg) was 0.644. For the same molecule, the “RAcmax (accumulation ratio)” value ([4]; 200 mg) was 0.969, the “mean Cmax lower in the fed state compared to the fasted state” value ([4]; 200 mg) was “approximately 36%” and the “RAcmax (accumulation ratio)” value ([4]; 300 mg) was 0.861. For the same molecule, the “RAcmax (accumulation ratio)” value ([4]; 400 mg) was 0.962, the “RAcmax (accumulation ratio)” value ([4]; 600 mg) was 1.04 and the “RAcmax (accumulation ratio)” value ([4]; 800 mg) was 1.09. For the same molecule, the t1/2 ([4]; 800 mg) was 7.08¶ h.

Source: patent US20250064844A1 (Emory University, priority 2020, published 2025)
